Consider four compounds from patent publication US9637516B2, “Betulinic acid proline derivatives as HIV inhibitors” (HETERO RESEARCH FOUNDATION, priority 2012, dated 2017).

Series [1] is described as follows: Single dose oral pharmacokinetic study. Format: in vivo, mice. The note with it: mouse, plasma; Mice oral PK @30 mg/kg (Table 3). As for the experimental part:
The test item was administered through oral route to animals (rat/mice) at 30 mg/kg dose in a suitable vehicle at 10 ml/kg dose volume. Blood samples (˜50 uL at each time point) were collected from retro-orbital plexus using K3 EDTA as anticoagulant in eppendorf tubes at defined time intervals under light ether anesthesia. The samples were centrifuged at 3500×g to separate plasma and stored at −80° C. until analysis.
Sample analysis: Test samples were analyzed using LC-MS-MS after developing fit-for-purpose method for each of test compound.

Another series has as its system HIV-1 strain 92HT599. The series can be described thus: Antiviral activity: p24 estimation in MT2 cells infected with HIV-1 strain 92HT599. Type of series: cell-based. The note with it: for inhibition at 0.1 µM: Human immunodeficiency virus 1, 100 nM; for inhibition at 0.1 µM / inhibition at 1 µM: HIV-1 92HT599, p24, ~96 hours; for inhibition at 1 µM: Human immunodeficiency virus 1, 1000 nM; for IC50: Human immunodeficiency virus 1, HIV-1 92HT599, p24. As for the experimental part:
MT2 cells were infected with HIV-1 strain 92HT599 (10 TCID 50/30000 cells). The infected cells were plated at the concentration of ˜30 000 cells per well in 96 well plate. Test compound was added to the micro plate in defined format with the final concentration of DMSO (vehicle) is not more than 1%. Incubation was carried out in CO2 incubator for ˜96 hours for viral infection. At the end of incubation period an aliquot from each well was taken for p24 estimation. The quantitation of p24 is an index for antiviral activity of the compound. Percent inhibition was calculated with reference to control values (vehicle controls). p-24 estimation was carried out using Advance biosciences kit as per the procedure detailed by supplier.

The nature of the next series: in vitro. Type of series: cell-based. The note with it: human, Cytotoxicity % viability. As for the experimental part:
(§1) For cyto-toxicity assay the same amount of MT2 cells as in antiviral assay without virus was added to the 96 well plates. The cyto-toxicity was measured using MTT reagent in parallel with p24 estimation. The percent viability is calculated in comparison with vehicle control.

A further series relates to MT2 cells. The series can be described thus: in vitro. Type of series: cell-based. As to conditions: human, 1 µM. As for the experimental part:
as §1

A word on the AUC(0-t): it is the area under the concentration-time curve up to a stated or last time point. A lower AUC(0-t) goes with low exposure. In general, Cmax refers to the peak of the concentration-time curve. In general, Tmax refers to the time at which the peak concentration occurs. What is called inhibition is the share of the control response that was lost under treatment. A word on the IC50: it is the concentration at which inhibition is half-maximal. Usually viability stands for a read-out of living cells in per cent, often relative to untreated cells. The low end stands for a greater loss of cells, the high end for better survival. `C=C(C)[C@@H]1CC[C@]2(C(=O)N3CCC[C@@H]3c3nc(-c4cccnc4)no3)CC[C@]3(C)[C@H](CC[C@@H]4[C@@]5(C)CC[C@H](OC(=O)CC(C)(C)C(=O)O)C(C)(C)[C@@H]5CC[C@]43C)[C@@H]12` [Compound 3, 2,2-dimethyl-4-oxo-4-((1R,3aS,5aR,5bR,7aR,9S,11aR,11bR,13aR,13bR)-5a,5b,8,8,11a-pentamethyl-1-(prop-1-en-2-yl)-3a-((R)-2-(3-(pyridin-3-yl)-1,2,4-oxadiazol-5-yl)pyrrolidine-1-carbonyl)icosahydro-1H-cyclopenta[a]chrysen-9-yloxy)butanoic acid]: in series [1], the AUC(0-t) came to 66500 ng·h/mL, the Cmax turned out to be 7430 ng/mL and the Tmax was determined as 1.75 h. In the series on HIV-1 strain 92HT599, the inhibition at 0.1 µM is 100%, the inhibition at 1 µM was 100% and the IC50 is 3.34 nM. The compound further came in with a viability at 1 µM in “in vitro” of 97%. This compound returned a Cytotoxicity % viability with MT2 cells of 100%.
`C=C(C)[C@@H]1CC[C@]2(C(=O)N3CCC[C@H]3c3ncc(-c4cccnc4)[nH]3)CC[C@]3(C)[C@H](CC[C@@H]4[C@@]5(C)CC[C@H](OC(=O)CC(C)(C)C(=O)O)C(C)(C)[C@@H]5CC[C@]43C)[C@@H]12` [Compound 10, 2,2-dimethyl-4-oxo-4-((1R,3aS,5aR,5bR,7aR,9S,11aR,11bR,13aR,13bR)-5a,5b,8,8,11a-pentamethyl-1-(prop-1-en-2-yl)-3a-((S)-2-(5-(pyridin-3-yl)-1H-imidazol-2-yl)pyrrolidine-1-carbonyl)icosahydro-1H-cyclopenta[a]chrysen-9-yloxy)butanoic acid]: in series [1], the AUC(0-t) turned out to be 40500 ng·h/mL, the concentration peaked (Cmax) at 5840 ng/mL and the Tmax amounted to 1.13 h. In the series on HIV-1 strain 92HT599, the inhibition at 0.1 µM was 100%, the inhibition at 1 µM is 100% and the IC50 was 0.8 nM. For the same compound, the viability at 1 µM in “in vitro” was determined as 82%. Besides, the Cytotoxicity % viability with MT2 cells came out at 81%.
As to `C=C(C)[C@@H]1CC[C@]2(C(=O)N3CCC[C@H]3c3ncc(-c4ccccc4)[nH]3)CC[C@]3(C)[C@H](CC[C@@H]4[C@@]5(C)CC[C@H](OC(=O)[C@H]6C[C@@H](C(=O)O)C6(C)C)C(C)(C)[C@@H]5CC[C@]43C)[C@@H]12` [Compound 14], in series [1], the AUC(0-t) came out at 171000 ng·h/mL, the Cmax came to 11000 ng/mL and the Tmax was determined as 5 h. In the series with HIV-1 strain 92HT599, the inhibition at 0.1 µM was 94%, the inhibition at 1 µM is 100% and the IC50 was 15.3 nM. For the same compound, the viability at 1 µM in the series “in vitro” is 82%. In the series with MT2 cells, this compound displayed a Cytotoxicity % viability of 86%.
Turning to `C=C(C)[C@@H]1CC[C@]2(C(=O)N3CCC[C@H]3c3ncc(-c4ccccc4)[nH]3)CC[C@]3(C)[C@H](CC[C@@H]4[C@@]5(C)CC[C@H](OC(=O)CC(C)(C)CC(=O)O)C(C)(C)[C@@H]5CC[C@]43C)[C@@H]12` [Compound 9, 3,3-dimethyl-5-oxo-5-((1R,3aS,5aR,5bR,7aR,9S,11aR,11bR,13aR,13bR)-5a,5b,8,8,11a-pentamethyl-3a-((S)-2-(5-phenyl-1H-imidazol-2-yl)pyrrolidine-1-carbonyl)-1-(prop-1-en-2-yl)icosahydro-1H-cyclopenta[a]chrysen-9-yloxy)pentanoic acid], in series [1], the AUC(0-t) is 58000 ng·h/mL, the highest level (Cmax) was 5460 ng/mL and the Tmax turned out to be 6 h. Besides, in the series on HIV-1 strain 92HT599, the inhibition at 0.1 µM was 81% and the inhibition at 1 µM is 98%. The same compound returned a viability at 1 µM in the series “in vitro” of 100%. In the series with MT2 cells, this compound registered a Cytotoxicity % viability of 99%.
